# Assays:
# [1] = biological target: Mitogen-activated protein kinase 9 (Homo sapiens, UniProt P45984); assay: Percentage JNK2 activity remaining in the presence of 2uM inhibitor
# [2] = biological target: T1, Serine/threonine-protein kinase Sgk1 (Homo sapiens) (UniProt O00141); assay: Percentage SGK1 activity remaining in the presence of 2uM inhibitor
# T1 sequence (whole entry): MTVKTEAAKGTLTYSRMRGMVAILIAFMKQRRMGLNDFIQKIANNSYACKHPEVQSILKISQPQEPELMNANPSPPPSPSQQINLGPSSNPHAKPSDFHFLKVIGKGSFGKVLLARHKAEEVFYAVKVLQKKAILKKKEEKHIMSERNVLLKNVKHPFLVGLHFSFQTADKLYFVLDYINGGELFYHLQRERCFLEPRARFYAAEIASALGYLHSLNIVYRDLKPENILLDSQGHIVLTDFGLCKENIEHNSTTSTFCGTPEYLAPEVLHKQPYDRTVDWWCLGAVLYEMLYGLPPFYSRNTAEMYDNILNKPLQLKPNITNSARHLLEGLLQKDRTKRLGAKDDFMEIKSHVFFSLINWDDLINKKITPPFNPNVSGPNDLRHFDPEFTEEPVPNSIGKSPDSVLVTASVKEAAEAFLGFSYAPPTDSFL
# [3] = biological target: Serine/threonine-protein kinase pim-3 (Homo sapiens, UniProt Q86V86); assay: Percentage PIM3 activity remaining in the presence of 2uM inhibitor; conditions: filed as antagonist
# [4] = biological target: Serine/threonine-protein kinase Nek6 (Homo sapiens) (UniProt Q9HC98); assay: Percentage NEK6 activity remaining in the presence of 2uM inhibitor
# Chain of Serine/threonine-protein kinase Nek6 (Homo sapiens) (Q9HC98 whole entry): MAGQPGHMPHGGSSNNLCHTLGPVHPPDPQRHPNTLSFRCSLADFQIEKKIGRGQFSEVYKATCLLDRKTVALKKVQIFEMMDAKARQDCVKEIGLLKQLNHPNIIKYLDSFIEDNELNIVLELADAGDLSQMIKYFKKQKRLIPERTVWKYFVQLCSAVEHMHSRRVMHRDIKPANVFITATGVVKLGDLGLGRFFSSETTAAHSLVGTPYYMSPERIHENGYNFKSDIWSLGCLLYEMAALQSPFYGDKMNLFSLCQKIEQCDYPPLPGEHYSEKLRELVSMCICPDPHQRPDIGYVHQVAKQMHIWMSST
# [5] = biological target: T2, Protein kinase C zeta type (Homo sapiens) (UniProt Q05513); assay: Percentage PKCzeta activity remaining in the presence of 2uM inhibitor
# T2 sequence (whole entry): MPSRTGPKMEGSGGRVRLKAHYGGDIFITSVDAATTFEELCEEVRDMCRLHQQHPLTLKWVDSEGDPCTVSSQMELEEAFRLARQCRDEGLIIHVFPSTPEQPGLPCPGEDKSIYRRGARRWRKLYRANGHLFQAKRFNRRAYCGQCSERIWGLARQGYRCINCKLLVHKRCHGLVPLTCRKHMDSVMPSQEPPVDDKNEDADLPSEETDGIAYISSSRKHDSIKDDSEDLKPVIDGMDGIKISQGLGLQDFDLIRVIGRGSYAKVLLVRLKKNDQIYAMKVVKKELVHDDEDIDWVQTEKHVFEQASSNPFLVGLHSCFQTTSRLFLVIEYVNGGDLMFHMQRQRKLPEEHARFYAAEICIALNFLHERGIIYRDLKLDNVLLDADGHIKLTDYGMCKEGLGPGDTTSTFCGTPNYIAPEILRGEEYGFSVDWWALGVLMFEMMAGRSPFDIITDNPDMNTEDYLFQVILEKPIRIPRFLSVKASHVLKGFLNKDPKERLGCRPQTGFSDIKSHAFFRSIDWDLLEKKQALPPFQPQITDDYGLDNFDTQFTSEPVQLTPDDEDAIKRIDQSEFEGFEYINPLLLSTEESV
# [6] = biological target: T3, Serine/threonine-protein kinase Nek2 (Homo sapiens) (UniProt P51955); assay: Percentage NEK2a activity remaining in the presence of 3uM inhibitor
# T3 sequence (whole entry): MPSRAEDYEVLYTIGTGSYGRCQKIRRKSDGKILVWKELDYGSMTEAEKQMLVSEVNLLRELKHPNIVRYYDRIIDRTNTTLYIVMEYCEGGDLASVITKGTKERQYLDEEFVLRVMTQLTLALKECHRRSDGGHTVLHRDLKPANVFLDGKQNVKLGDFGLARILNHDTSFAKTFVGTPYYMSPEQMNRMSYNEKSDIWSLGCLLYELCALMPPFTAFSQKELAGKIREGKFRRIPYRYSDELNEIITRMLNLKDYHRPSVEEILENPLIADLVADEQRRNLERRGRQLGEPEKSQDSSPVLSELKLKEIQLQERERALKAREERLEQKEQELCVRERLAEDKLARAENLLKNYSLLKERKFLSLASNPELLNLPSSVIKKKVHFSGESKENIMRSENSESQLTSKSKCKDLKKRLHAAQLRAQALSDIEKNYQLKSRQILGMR
# [7] = organism: Rattus norvegicus; assay: Percentage AMPK activity remaining in the presence of 3uM inhibitor
# [8] = biological target: Protein kinase C alpha type (Homo sapiens) (UniProt P17252); assay: Percentage PKCalpha activity remaining in the presence of 3uM inhibitor
# [9] = biological target: Tyrosine-protein kinase CSK (Homo sapiens, UniProt P41240); assay: Percentage CSK activity remaining in the presence of 3uM inhibitor
# Chain of Tyrosine-protein kinase CSK (P41240 2-450 limits assumed): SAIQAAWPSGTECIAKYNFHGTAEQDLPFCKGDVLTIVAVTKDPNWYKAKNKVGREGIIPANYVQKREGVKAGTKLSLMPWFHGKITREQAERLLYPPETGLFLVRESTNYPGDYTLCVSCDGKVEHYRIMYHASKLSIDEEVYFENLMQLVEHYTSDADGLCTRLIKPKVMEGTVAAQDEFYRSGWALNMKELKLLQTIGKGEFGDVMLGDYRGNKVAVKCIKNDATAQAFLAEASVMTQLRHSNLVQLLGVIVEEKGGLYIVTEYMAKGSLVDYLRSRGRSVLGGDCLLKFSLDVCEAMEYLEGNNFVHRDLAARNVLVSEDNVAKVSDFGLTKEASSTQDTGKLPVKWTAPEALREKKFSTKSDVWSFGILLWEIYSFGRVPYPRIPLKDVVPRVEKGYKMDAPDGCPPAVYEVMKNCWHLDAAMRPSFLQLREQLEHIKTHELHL
# [10] = biological target: Homeodomain-interacting protein kinase 3 (Homo sapiens) (UniProt Q9H422); assay: Percentage HIPK3 activity remaining in the presence of 3uM inhibitor
# Chain of Homeodomain-interacting protein kinase 3 (Homo sapiens) (Q9H422 whole entry, looked up): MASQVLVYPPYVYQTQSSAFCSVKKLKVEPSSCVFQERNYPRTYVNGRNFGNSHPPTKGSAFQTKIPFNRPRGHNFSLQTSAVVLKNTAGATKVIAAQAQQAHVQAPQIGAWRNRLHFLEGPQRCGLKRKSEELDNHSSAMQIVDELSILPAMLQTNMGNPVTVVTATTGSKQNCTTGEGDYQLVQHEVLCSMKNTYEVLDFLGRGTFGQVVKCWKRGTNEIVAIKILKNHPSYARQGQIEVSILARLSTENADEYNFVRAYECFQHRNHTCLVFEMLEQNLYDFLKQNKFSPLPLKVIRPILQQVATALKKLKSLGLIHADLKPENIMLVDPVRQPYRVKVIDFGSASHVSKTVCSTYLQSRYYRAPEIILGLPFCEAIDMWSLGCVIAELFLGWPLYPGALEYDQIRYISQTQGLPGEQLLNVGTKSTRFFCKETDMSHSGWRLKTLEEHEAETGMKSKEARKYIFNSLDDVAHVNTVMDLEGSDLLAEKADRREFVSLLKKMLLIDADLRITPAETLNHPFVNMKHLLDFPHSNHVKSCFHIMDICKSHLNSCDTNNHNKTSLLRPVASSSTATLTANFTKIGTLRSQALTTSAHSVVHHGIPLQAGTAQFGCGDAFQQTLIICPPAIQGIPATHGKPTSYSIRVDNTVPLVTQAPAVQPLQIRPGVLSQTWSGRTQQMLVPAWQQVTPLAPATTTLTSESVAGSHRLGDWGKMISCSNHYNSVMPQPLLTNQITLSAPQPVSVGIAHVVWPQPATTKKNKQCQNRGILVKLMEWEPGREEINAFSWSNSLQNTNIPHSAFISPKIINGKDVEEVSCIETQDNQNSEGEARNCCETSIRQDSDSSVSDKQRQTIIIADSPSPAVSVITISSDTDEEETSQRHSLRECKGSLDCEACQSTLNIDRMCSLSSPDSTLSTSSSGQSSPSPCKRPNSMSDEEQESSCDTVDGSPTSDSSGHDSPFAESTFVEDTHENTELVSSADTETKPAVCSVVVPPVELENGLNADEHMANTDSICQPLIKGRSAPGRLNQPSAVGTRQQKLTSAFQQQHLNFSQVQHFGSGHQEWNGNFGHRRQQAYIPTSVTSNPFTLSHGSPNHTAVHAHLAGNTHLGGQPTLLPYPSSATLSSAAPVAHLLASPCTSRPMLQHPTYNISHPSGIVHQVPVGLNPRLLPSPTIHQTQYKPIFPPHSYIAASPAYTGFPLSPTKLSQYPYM
# [11] = biological target: Casein kinase II (Homo sapiens) (UniProt P67870+P68400+P19784); assay: Percentage CK2 activity remaining in the presence of 3uM inhibitor; format: protein-complex assay
# [12] = biological target: T2, Protein kinase C zeta type (Homo sapiens); assay: Percentage PKCzeta activity remaining in the presence of 3uM inhibitor
# [13] = biological target: Mitogen-activated protein kinase 1 (Homo sapiens) (UniProt P28482); assay: Percentage ERK2 activity remaining in the presence of 3uM inhibitor
# Chain of Mitogen-activated protein kinase 1 (Homo sapiens) (P28482 whole entry): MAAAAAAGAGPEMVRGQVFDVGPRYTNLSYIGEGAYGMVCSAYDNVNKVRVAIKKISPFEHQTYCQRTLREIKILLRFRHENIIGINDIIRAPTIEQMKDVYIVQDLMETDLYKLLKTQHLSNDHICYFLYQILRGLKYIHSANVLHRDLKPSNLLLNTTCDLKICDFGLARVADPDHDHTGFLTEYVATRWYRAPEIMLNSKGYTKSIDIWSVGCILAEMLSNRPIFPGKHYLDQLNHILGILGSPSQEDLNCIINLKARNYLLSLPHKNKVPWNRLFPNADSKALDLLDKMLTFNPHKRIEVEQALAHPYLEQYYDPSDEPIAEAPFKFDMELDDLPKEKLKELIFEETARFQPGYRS
# [14] = biological target: T4, Serine/threonine-protein kinase 3 (Homo sapiens) (UniProt Q13188); assay: Percentage MST2 activity remaining in the presence of 3uM inhibitor
# T4 sequence (whole entry): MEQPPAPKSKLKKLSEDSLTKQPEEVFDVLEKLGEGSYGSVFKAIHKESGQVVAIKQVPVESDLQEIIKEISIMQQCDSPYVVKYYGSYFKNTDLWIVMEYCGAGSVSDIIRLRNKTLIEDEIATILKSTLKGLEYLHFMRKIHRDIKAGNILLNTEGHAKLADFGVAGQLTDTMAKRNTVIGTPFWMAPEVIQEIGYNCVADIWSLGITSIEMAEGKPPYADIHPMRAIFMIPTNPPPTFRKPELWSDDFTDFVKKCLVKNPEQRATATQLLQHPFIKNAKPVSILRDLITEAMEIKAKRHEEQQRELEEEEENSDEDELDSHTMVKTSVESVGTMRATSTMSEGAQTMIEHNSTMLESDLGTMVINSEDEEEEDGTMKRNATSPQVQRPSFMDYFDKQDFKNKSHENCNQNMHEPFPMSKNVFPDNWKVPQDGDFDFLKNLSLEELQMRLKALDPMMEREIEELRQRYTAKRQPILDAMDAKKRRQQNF
# Chain of Mitogen-activated protein kinase 9 (P45984 whole entry, looked up): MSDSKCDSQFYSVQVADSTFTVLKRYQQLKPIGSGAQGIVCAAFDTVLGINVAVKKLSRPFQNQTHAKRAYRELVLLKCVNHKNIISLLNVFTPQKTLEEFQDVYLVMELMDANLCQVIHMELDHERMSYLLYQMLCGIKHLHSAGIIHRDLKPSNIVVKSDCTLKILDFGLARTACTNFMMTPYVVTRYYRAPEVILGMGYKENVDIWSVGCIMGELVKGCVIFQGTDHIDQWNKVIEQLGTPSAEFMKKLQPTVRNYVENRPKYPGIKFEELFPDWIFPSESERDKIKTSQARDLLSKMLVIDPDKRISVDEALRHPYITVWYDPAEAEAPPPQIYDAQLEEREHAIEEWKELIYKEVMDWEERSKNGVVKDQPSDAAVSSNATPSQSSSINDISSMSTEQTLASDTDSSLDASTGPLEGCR
Compound,Activity [1],Activity [2],Activity [3],Activity [4],Activity [5],Activity [6],Activity [7],Activity [8],Activity [9],Activity [10],Activity [11],Activity [12],Activity [13],Activity [14]
Cn1cc(C2=C(c3ccc(Cl)cc3Cl)C(=O)NC2=O)c2ccccc21,85%,100%,29%,74%,81%,,,,,,,,,
Cc1ccc(-c2c(C(=O)CF)n(CCCO)c3ncnc(N)c23)cc1,,,,,,95%,79%,85%,55%,79%,92%,91%,79%,76%

# From ChEMBL document CHEMBL1150976, “The selectivity of protein kinase inhibitors: a further update” (Biochem J, 2007)
